What was measured:
[1] = AC voltammetry (capacitance-potential scans) of DOPC monolayer on hanging mercury drop electrode (HMDE) with analyte in electrolyte
Method: The HMDE was based on using a capillary with a diameter of 0.1 mm so as to provide a surface area for the mercury drop about the same as the surface area of the mercury in the electrode in accordance with the invention.
Experiments were performed in 0.1M Kcl.

[2] = for response of the electrode of the invention to the test compound (depression of capacitance peaks): 0.5 μmol dm^−3 in 0.1M KCl
Method: The HMDE and the electrode of the invention were compared side-by-side in a static cell configuration. All experiments were carried out in 0.1 M potassium chloride solution. Measurements were taken at 75 Hz between −0.4 to −1.15 V with 4.95 mV rms at a scan rate of 5 mV
This Example compares a HMDE electrode with an electrode as produced in accordance with Example 3, both coated with a monolayer film of 1,2-dioleoyl-sn-glycero-3-phosphocholine (DOPC), new layers of which were deposited between consecutive scans. Experiments were performed in 0.1M Kcl. A negative going ‘forward’ potential scan was performed between −0.4 V and −1.15 V, and then followed immediately by a positive going ‘reverse’ scan from −1.15 V to −0.4 V with 4.95 mV rms at a scan rate of 5 mVs^−1.

[3] = Pt/Hg electrode, DOPC monolayer, compared with HMDE

SMILES: NC(=O)c1cc[n+](COC[n+]2ccccc2C=NO)cc1 [H16]
- response of the HMDE to the test compound ([1]; 5 μmol dm^−3): large response
- response of the electrode of the invention to the test compound (depression of capacitance peaks) [2, 3]: far greater response
- response of the electrode of the invention to the test compound ([2]; 5 μmol dm^−3, Pt/Hg electrode, DOPC monolayer, compared with HMDE): slightly larger response

SMILES: CN(C)CCCN1c2ccccc2Sc2ccc(Cl)cc21 [chlorpromazine]
- sensitivity converted to ppb ([2]; assuming a density for the solution of 1 g per ml): approximately 18 ppb

SMILES: CC(CN1c2ccccc2Sc2ccccc21)N(C)C (stereo not drawn) [promethazine]
- response of the HMDE to the test compound ([1]; 0.5 μmol dm^−3 in 0.1M KCl): show response
- response of the electrode of the invention to the test compound (depression of capacitance peaks) [2, 3]: stronger response (greater depression of the peaks)

Reference: patent US20160377571A1, “BIOSENSOR” (University of Leeds, priority 2007, published 2016)
